Reference: patent US20100152154A1, “NOVEL PLATINUM COMPOUNDS FOR TREATING CANCER” (priority 2008, published 2010)

Experiments:
Type in all cases: cell-based, human
[1] = tested on: 786-0 cells; test: In vitro IC50 by MTS assay, 786-0 kidney cancer cells; conditions: 786-0, 48 hr incubation, MTS assay (490 nm)
Method: (§1) To Determine the In Vitro IC50 Values on Ten Human Cancer Cell Lines
(§2) HepG2 and PLC/PRF/5 cells are cultured in DMEM medium. Hep3B cells are cultured in MEM medium. NCI-H460 and 786-0 cells are cultured in RPMI 1640 medium. Caki-1, HCT-116, and SK-OV-3 cells are cultured in McCoy's 5A medium. MDA-MB-231 cells are cultured in L15 medium. All cells are cultured in corresponding media supplemented with 10% FBS, at 37° C., 5% CO2, and 95% humidity. All media are purchased from GIBCO.
(§3) CellTiter 96® Aqueous MTS reagent powder (Cat. No. G1112, Promega) Phenazine methosulfate (PMS) (Cat. No. P9625, Sigma)
(§4) Cells are harvested during the logarithmic growth period and counted with hemocytometer. Add 90 μl cell suspensions to 96-well plates (triplicates for each cell concentration), the final cell densities are 2×10^4, 1×10^4, or 5×10^3 cells/well. Prepare a series of drug concentrations for each of JP0916 and cisplatin and dispense 10 μl drug solution in each well (triplicate for each drug concentration). Incubate the plate for 48 hr then measure by MTS assay (490 nm).

[2] = tested on: PC/PRF/5 cells; test: In vitro IC50 by MTS assay, PC/PRF/5 liver cancer cells; conditions: PC/PRF/5, 48 hr incubation, MTS assay (490 nm)
Method: as §1, §2, §3, §4

[3] = tested on: HepG2 cells; test: In vitro IC50 by MTS assay, HepG2 liver cancer cells; conditions: HepG2, 48 hr incubation, MTS assay (490 nm)
Method: as §1, §2, §3, §4

[4] = tested on: HCT-116 cells; test: In vitro IC50 by MTS assay, HCT-116 colon cancer cells; conditions: HCT-116, 48 hr incubation, MTS assay (490 nm)
Method: as §1, §2, §3, §4

[5] = tested on: Hep3B cells; test: In vitro IC50 by MTS assay, Hep3B liver cancer cells; conditions: 48 hr incubation, MTS assay (490 nm)
Method: as §1, §2, §3, §4

[6] = tested on: Caki-1 cells; test: In vitro IC50 by MTS assay, Caki-1 kidney cancer cells; conditions: Caki-1, 48 hr incubation, MTS assay (490 nm)
Method: as §1, §2, §3, §4

[7] = tested on: MDA-MB-231 cells; test: In vitro IC50 by MTS assay, MDA-MB-231 breast cancer cells; conditions: MDA-MB-231, 48 hr incubation, MTS assay (490 nm)
Method: as §1, §2, §3, §4

[8] = tested on: NCI-H460 cells; test: In vitro IC50 by MTS assay, NCI-H460 NSCLC cells; conditions: NCI-H460, 48 hr incubation, MTS assay (490 nm)
Method: as §1, §2, §3, §4

[9] = tested on: SK-OV-3 cells; test: In vitro IC50 by MTS assay, SK-OV-3 ovarian cancer cells; conditions: SK-OV-3, 48 hr incubation, MTS assay (490 nm)
Method: as §1, §2, §3, §4

## cis-diamminedichloroplatinum(II) [Cisplatin]
[1]
  IC50: 3.54 µM
[2]
  IC50: 21.8 µM
[3]
  IC50: 25.6 µM
[4]
  IC50: 10.6 µM
[5]
  IC50: 3.08 µM
[6]
  IC50: 10.5 µM
[7]
  IC50: 53.2 µM
[8]
  IC50: 8.56 µM
[9]
  IC50: 21.6 µM
